# Measurements reported in ChEMBL document CHEMBL1152307, “Antimycobacterial and H1-antihistaminic activity of 2-substituted piperidine derivatives” (Bioorg Med Chem, 2008).
# How the values were obtained:
# [1] = Cytotoxicity against HEK293 cells after 72 hrs by MTT assay; assay type: cell-based; conditions: human, read-out: LC50
# [2] = system: Mycobacterium tuberculosis; test: Antimycobacterial activity against Mycobacterium tuberculosis H37Rv at 6.25 ug/ml after 4 days by microplate alamar blue assay; assay type: functional; conditions: 96 h
# [3] = system: Mycobacterium tuberculosis; test: Antimycobacterial activity against Mycobacterium tuberculosis H37Rv after 4 days by microplate alamar blue assay; assay type: functional; conditions: 96 h
# [4] = target: Histamine H1 receptor (Cavia porcellus) (UniProt P31389); test: Antagonist activity at guinea pig ileum histamine H1 receptor at 0.3 x 10'4 M; assay type: functional, tissue-based
# Chain of Histamine H1 receptor (Cavia porcellus) (P31389 whole entry): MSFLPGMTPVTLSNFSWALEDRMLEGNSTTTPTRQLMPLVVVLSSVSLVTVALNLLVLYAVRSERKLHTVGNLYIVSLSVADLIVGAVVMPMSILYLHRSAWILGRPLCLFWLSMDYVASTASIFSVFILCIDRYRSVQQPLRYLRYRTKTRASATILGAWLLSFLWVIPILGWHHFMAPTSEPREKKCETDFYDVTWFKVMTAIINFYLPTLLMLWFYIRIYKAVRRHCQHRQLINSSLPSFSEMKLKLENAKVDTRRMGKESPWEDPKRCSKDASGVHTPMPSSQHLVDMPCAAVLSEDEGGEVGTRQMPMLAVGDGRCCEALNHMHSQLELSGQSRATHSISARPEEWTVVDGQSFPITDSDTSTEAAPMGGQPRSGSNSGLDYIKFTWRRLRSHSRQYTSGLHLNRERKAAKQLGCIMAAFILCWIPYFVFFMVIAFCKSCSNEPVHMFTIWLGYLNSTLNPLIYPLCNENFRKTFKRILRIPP
SMILES,CC50 at 72 h [1] [µg/mL],inhibition at 6.25 µg/mL [2] [%],MIC [3] [µg/mL],pKb [4]
CN1CC[C@H](N(Cc2ccccc2)c2ccccc2)CC1(C)C,69.5,31,> 6.25,
COc1ccc(N(Cc2ccccc2)[C@H]2CCN(C)C(C)(C)C2)cc1,82,26,> 6.25,
CC1(C)C[C@@H](N(Cc2ccccc2)c2ccccc2)CCN1c1ccccc1,108,91,6.25,5
CN1CC[C@H](OC(c2ccccc2)c2ccccc2)CC1(C)C,,,,8.19
c1ccc(CN(c2ccccc2)[C@H]2CCN(c3ccccc3)[C@@H](c3ccccc3)C2)cc1 (relative stereo),> 28,37,> 6.25,
CC(C)[C@H]1C[C@@H](N(Cc2ccccc2)c2ccccc2)CCN1C (relative stereo),35.9,66,> 6.25,
CC(C)[C@H]1C[C@@H](N(Cc2ccccc2)c2ccccc2)CCN1c1ccccc1 (relative stereo),127,7,> 6.25,
c1ccc(CN(c2ccccc2)[C@H]2CCN(c3ccccc3)[C@H](c3ccccc3)C2)cc1 (relative stereo),> 28,22,> 6.25,
CC(C)[C@@H]1C[C@@H](N(Cc2ccccc2)c2ccccc2)CCN1c1ccccc1 (relative stereo),> 28,52,> 6.25,
CN1CCC(N(Cc2ccccc2)c2ccccc2)CC1 [BAMIPINE],64.1,29,> 6.25,
NNC(=O)c1ccncc1 [ISONIAZID],> 200,,0.025,
CO[C@H]1/C=C/O[C@@]2(C)Oc3c(C)c(O)c4c(O)c(c(/C=N/N5CCN(C)CC5)c(O)c4c3C2=O)NC(=O)/C(C)=C\C=C\[C@H](C)[C@H](O)[C@@H](C)[C@@H](O)[C@@H](C)[C@H](OC(C)=O)[C@@H]1C [RIFAMPIN],> 200,,0.06,
